# Assay results as given in publication PMC3527108 (Journal of medicinal chemistry, 2012).
# Where two headings read alike, the source gives them in different places.
# Key:
# [1] = system: GI transit in morphine naive mice; conditions: similar assay, similar dose (about 10 mg/kg); cited from earlier work
# [2] = system: GI transit in morphine-pelleted mice; conditions: cited from earlier work
# [3] = system: Caco-2 cells; conditions: cited from earlier work
# [4] = low due to significant hepatic first-pass; cited from earlier work
# [5] = system: antinociception (tail flick) in mice; test: Warm-water tail flick test; type: in vivo; conditions: morphine 10 mg/kg, dose up to 30 mg/kg
# [6] = biological target: mu opioid receptor (MOR) (Homo sapiens, UniProt P35372); test: Competitive radioligand binding assay, MOR; conditions: from Ki values
# [7] = system: opioid-induced constipation in patients; conditions: cited from earlier work; for patients with laxation within 4 hours after the first dose: clinical trial, subcutaneous
# [8] = system: Caco-2 cells; test: Bidirectional transport in Caco-2 cells; type: in vitro ADME; conditions: apical/basolateral, up to 2 h
# mu opioid receptor (MOR), sequence (P35372 whole entry, species assumed): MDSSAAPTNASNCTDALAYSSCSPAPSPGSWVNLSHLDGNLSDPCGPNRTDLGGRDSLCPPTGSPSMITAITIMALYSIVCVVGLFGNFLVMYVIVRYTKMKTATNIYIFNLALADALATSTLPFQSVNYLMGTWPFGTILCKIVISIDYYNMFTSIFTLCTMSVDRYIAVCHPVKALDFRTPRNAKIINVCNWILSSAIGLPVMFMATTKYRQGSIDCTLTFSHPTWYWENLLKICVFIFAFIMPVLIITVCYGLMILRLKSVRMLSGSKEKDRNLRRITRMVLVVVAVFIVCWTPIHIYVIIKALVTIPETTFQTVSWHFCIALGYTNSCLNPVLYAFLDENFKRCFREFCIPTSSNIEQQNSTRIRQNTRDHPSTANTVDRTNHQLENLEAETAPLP
smiles,measurement,setting,value
"O=C(N[C@@H]1CC[C@@]2(O)[C@H]3Cc4ccc(O)c5c4[C@@]2(CCN3CC2CC2)[C@H]1O5)c1ccncc1 [NAP, 17-cyclopropylmethyl-3, 14β-dihydroxy-4,5α-epoxy-6β-[(4’ -pyridyl)carboxamido]morphinan]",effect of compound alone on intestinal motility,[1],intestinal motility decreased
same,ED50 in the GI transit assay,[2]; GI transit assay,8.8 µg/kg
same,incidence of diarrhea,[2]; high doses,incidence of diarrhea associated with high doses
same,apparent permeability,[3],significantly low
C=CCN1CC[C@]23c4c5ccc(O)c4O[C@H]2C(=O)CC[C@@]3(O)[C@H]1C5 [Naloxone],systemic bioavailability,[4],~ 2%
"O=C(CNC(=O)c1ccncc1)N[C@@H]1CC[C@@]2(O)[C@H]3Cc4ccc(O)c5c4[C@@]2(CCN3CC2CC2)[C@H]1O5 [Compound 12, 17-Cyclopropylmethyl-3,14β-dihydroxy-4,5α-epoxy-6β-{2′-[(pyridine-4′′-yl)carboxamido]acetamido}morphinan]",antagonism of antinociceptive effect of morphine,[5],no apparent antagonism effect
"O=C(N[C@@H]1CC[C@@]2(O)[C@H]3Cc4ccc(O)c5c4[C@@]2(CCN3CC2CC2)[C@H]1O5)c1ccnc(Cl)c1 [Compound 1, 17-Cyclopropylmethyl-3,14β-dihydroxy-4,5α-epoxy-6β-{[4′-(2′-chloropyridyl)]carboxamido}morphinan]",MOR selectivity over DOR,[6],over 1000 fold
"C[N@+]1(CC2CC2)CC[C@]23c4c5ccc(O)c4O[C@H]2C(=O)CC[C@@]3(O)[C@H]1C5 [MNTX, methylnaltrexone]",efficiency to induce SBM,[7],≤ 62%
same,patients with laxation within 4 hours after the first dose,[7]; placebo 14%,62%
same,patients with laxation within 4 hours after the first dose,[7]; placebo 15%,48%
"Cc1cnccc1C(=O)N[C@@H]1CC[C@@]2(O)[C@H]3Cc4ccc(O)c5c4[C@@]2(CCN3CC2CC2)[C@H]1O5 [Compound 8, 17-Cyclopropylmethyl-3,14β-dihydroxy-4,5α-epoxy-6β-{[4′-(3′-methylpyridyl)]carboxamido}morphinan]",apparent permeability / bidirectional transport,[8],low permeability
